The results in this text go back to EPA's ToxValDB 9.5 (doi:10.2903/j.efsa.2006.83r).

In brackets after ≈: the same amount, converted by molar mass. Several values for one entry are separate records, joined by “and”; a condition that tells them apart may be missing. Identical values can stand only once.

One data set has as its system Pimephales promelas. To be noted: chronic/long-term.
Another data set deals with Daphnia magna. To be noted: chronic/long-term; duration: 21 days.
The next data set has as its system Tagia sp. The following applies: acute; duration: 14 days; mortality.
Another data set relates to Rattus norvegicus. To be noted: acute; oral; gavage; M/F; clinical chemistry.
For the next data set, the system named is Lepomis macrochirus. The following applies: acute; duration: 96 hours; mortality.
Another data set concerns Apis mellifera. To be noted: acute; duration: 48 hours; dermal; mortality.
The test system of the next data set is Aphidius rhopalosiphi. Put plainly: LR50; higher = less toxic. To be noted: acute; duration: 48 hours; mortality.

The term NOAEL denotes the highest dose or exposure tested at which no adverse effect was seen. As for `CNC(=O)ON=C(C)SC` [Methomyl], the LD50 with Colinus virginianus (acute, oral, mortality) was 24.2 mg/kg and 30.4 mg/kg; the LD50 (acute, oral, unspecified, mortality) turned out to be 30 mg/kg; the LD50 in the data set with Apis mellifera worked out at 0.16 µg/piece. The NOEC with Colinus virginianus (reproduction developmental) came to 150 mg/kg-day; with Pimephales promelas, 0.073 mg/L; in the data set on Anas platyrhynchos (reproductive) it was 150 mg/kg; in the data set on Daphnia magna it was 0.0016 mg/L. Further, the LC50 was 3950 mg/kg with Anas platyrhynchos (short-term, oral, feed, mortality); 19 mg/kg in the data set on Tagia sp.; 0.63 mg/L (≈ 3.88 µM) in the data set with Lepomis macrochirus. The compound also showed an NOAEL (reproductive, development) of 75 mg/kg and an NOAEL with Rattus norvegicus of 0.25 mg/kg-day. In the data set on Aphidius rhopalosiphi, the LR50 came to 0.25 g/ha.
